Like-named read-outs stand apart in the source and are kept apart here.
Target: T1, F508delCFTR (Homo sapiens, UniProt P13569, DEL508-508)
T1 construct: expressed in transfected cells; host or cells: CFBE4lo-F508delCFTR-HRP cells (human lung derived epithelial cell line, doxycycline-inducible)
Assay: Cell Surface Expression-Horse Radish Peroxidase (CSE-HRP) Assay
Type: cell-based
Details: for EC50: CFBE4lo-F508delCFTR-HRP cells, 18-24 hours at 33° C.; for Maximum % activity (with co-corrector): with co-corrector 2 μM
Procedure, shortened: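 CFBE4lo− cells expressing F508delCFTR with HRP in the fourth exofacial loop, induced 72 h with 0.5 μg/mL doxycycline, then treated 18-24 h at 33° C, alone or with 2 μM co-corrector (8 points, 3-fold, top 20 μM). Luminol luminescence after washing; % activity normalized to DMSO and 2 μM positive control; sigmoidal EC50 from triplicate plates.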

[1] = test compound without co-corrector, HRP luminescence readout, read-out: EC50 (without co-corrector)
[2] = test compound without co-corrector, maximum at any tested concentration (up to 20 μM), normalized to on-plate positive control (2 μM co-corrector)
[3] = with co-corrector 2 μM 3-[(2R,4R)-4-({[1-(2,2-difluoro-1,3-benzodioxol-5-yl)cyclopropyl]carbonyl}amino)-7-methoxy-3,4-dihydro-2H-chromen-2-yl]benzoic acid, read-out: EC50 (with co-corrector)
[4] = maximum at any tested concentration (up to 20 μM), normalized to on-plate positive control (2 μM co-corrector)

T1 sequence (P13569 with tags, fused parts or gaps DEL508-508): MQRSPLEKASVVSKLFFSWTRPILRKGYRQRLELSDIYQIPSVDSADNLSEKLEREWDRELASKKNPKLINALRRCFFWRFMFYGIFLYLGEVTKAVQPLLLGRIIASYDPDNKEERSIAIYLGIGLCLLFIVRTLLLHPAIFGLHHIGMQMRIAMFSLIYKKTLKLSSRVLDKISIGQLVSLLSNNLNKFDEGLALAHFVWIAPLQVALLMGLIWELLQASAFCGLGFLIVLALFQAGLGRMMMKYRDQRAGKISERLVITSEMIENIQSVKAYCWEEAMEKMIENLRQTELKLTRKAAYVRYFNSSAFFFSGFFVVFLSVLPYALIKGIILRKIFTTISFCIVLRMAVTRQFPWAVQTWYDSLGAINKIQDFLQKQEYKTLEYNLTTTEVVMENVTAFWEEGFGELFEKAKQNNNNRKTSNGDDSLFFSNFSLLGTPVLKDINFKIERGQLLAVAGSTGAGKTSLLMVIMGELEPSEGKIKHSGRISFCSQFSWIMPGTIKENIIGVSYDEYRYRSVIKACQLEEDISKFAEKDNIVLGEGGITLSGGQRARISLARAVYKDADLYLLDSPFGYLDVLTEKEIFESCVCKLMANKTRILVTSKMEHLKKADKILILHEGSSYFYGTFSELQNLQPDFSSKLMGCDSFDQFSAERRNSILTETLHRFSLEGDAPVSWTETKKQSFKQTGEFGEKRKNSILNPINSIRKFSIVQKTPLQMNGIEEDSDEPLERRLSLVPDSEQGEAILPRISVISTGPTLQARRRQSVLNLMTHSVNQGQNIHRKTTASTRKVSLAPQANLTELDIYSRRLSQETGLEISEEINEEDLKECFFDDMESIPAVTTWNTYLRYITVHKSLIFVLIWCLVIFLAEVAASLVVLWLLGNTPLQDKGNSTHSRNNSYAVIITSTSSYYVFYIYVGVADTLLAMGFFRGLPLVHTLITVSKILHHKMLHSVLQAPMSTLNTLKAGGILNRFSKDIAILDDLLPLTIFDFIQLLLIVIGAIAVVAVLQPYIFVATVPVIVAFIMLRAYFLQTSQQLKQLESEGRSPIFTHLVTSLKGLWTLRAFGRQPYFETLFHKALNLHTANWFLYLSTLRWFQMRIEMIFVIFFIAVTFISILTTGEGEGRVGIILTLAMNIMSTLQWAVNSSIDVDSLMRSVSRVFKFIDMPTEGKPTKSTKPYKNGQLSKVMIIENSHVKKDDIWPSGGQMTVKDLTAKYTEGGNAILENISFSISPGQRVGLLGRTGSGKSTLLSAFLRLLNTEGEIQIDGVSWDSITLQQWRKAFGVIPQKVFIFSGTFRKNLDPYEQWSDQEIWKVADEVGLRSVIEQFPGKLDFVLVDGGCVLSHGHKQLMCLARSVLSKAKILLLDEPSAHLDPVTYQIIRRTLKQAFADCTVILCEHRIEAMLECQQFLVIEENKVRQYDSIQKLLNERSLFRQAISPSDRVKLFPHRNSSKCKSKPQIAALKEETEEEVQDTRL

EC50 [1]	Emax [2]	EC50 [3]	Maximum % activity (with co-corrector) [4]	Compound	Maximum % activity (without co-corrector) [2]
3 to 10 µM	< 50%	< 3 µM	++ (≥150 and <350)	COc1cccc2c1C(C(=O)NS(=O)(=O)c1cccc3ccccc13)CO2 (stereo not drawn) [Example 20, 4-methoxy-N-(naphthalene-1-sulfonyl)-2,3-dihydro-1-benzofuran-3-carboxamide]	–
3 to 10 µM	≥ 150%	3 to 10 µM	+++ (≥350)	COc1ccc(C2CCC2)c2c1[C@@H](C(=O)NS(=O)(=O)c1cccc3ccccc13)CCO2 [Example 55, (4S)-8-cyclobutyl-5-methoxy-N-(naphthalene-1-sulfonyl)-3,4-dihydro-2H-1-benzopyran-4-carboxamide]	–
< 3 µM	≥ 150%	< 3 µM	+++ (≥350)	COc1ccc(Br)c2c1C(C(=O)NS(=O)(=O)c1cccc3ccccc13)CC(C)(C)O2 (stereo not drawn) [Example 52, 8-bromo-5-methoxy-2,2-dimethyl-N-(naphthalene-1-sulfonyl)-3,4-dihydro-2H-1-benzopyran-4-carboxamide]	–
< 3 µM	< 50%	< 3 µM	++ (≥150 and <350)	CCC1(C(=O)NS(=O)(=O)c2cccc3ccccc23)COc2ccccc21 (stereo not drawn) [Example 23, 3-ethyl-N-(naphthalene-1-sulfonyl)-2,3-dihydro-1-benzofuran-3-carboxamide]	–
3 to 10 µM	50 to 150%	3 to 10 µM	++ (≥150 and <350)	COc1ccc(Br)c2c1[C@@H](C(=O)NS(=O)(=O)c1cccc3ccccc13)CO2 (single isomer, unassigned) [Example 73]	–
< 3 µM	≥ 150%	< 3 µM	+++ (≥350)	COc1ccc(C2CCC2)c2c1[C@H](C(=O)NS(=O)(=O)c1cccc3ccccc13)CCO2 [Example 56, (4R)-8-cyclobutyl-5-methoxy-N-(naphthalene-1-sulfonyl)-3,4-dihydro-2H-1-benzopyran-4-carboxamide]	–
3 to 10 µM	< 50%	3 to 10 µM	++ (≥150 and <350)	O=C(NS(=O)(=O)c1cccc2ccccc12)C1COc2c(Cl)cccc21 (stereo not drawn) [Example 43, 7-chloro-N-(naphthalene-1-sulfonyl)-2,3-dihydro-1-benzofuran-3-carboxamide]	–
< 3 µM	≥ 150%	< 3 µM	+++ (≥350)	COc1ccc(C2CCCC2)c2c1C(C(=O)NS(=O)(=O)c1cccc3ccccc13)CCO2 (stereo not drawn) [Example 14, 8-cyclopentyl-5-methoxy-N-(naphthalene-1-sulfonyl)-3,4-dihydro-2H-1-benzopyran-4-carboxamide]	–
< 3 µM	≥ 150%	< 3 µM	+++ (≥350)	COc1cccc2c1C(C(=O)NS(=O)(=O)c1cccc3ccccc13)CC1(CCCCC1)O2 (stereo not drawn) [Example 38, 5-methoxy-N-(naphthalene-1-sulfonyl)-3,4-dihydrospiro[1-benzopyran-2,1′-cyclohexane]-4-carboxamide]	–

The remaining lines, values behind:

Compound	EC50 [1]	Emax [2]	EC50 [3]	Maximum % activity (with co-corrector) [4]	Maximum % activity (without co-corrector) [2]
COc1ccc(C2CCC2)c2c1[C@H](C(=O)NS(=O)(=O)c1cccc3c1CCCN3)CO2 [Example 101, (3S)-7-cyclobutyl-4-methoxy-N-(1,2,3,4-tetrahydroquinoline-5-sulfonyl)-2,3-dihydro-1-benzofuran-3-carboxamide]	< 3 µM	≥ 150%	< 3 µM	+++ (≥350)	–
O=C(NS(=O)(=O)c1cccc2ccccc12)C1(c2ccccc2)CCOc2ccc(Br)cc21 (stereo not drawn) [Example 1, 6-bromo-N-(naphthalene-1-sulfonyl)-4-phenyl-3,4-dihydro-2H-1-benzopyran-4-carboxamide]	< 3 µM	≥ 150%	< 3 µM	+++ (≥350)	–
COc1ccc(Br)c2c1C(C(=O)NS(=O)(=O)c1cccc3cccnc13)CCO2 (stereo not drawn) [Example 42, 8-bromo-5-methoxy-N-(quinoline-8-sulfonyl)-3,4-dihydro-2H-1-benzopyran-4-carboxamide]	3 to 10 µM	50 to 150%	< 3 µM	+++ (≥350)	–
COc1ccc(C2CCC2)c2c1C(C(=O)NS(=O)(=O)c1cccc3c1NCCC3)CO2 (stereo not drawn) [Example 90, 7-cyclobutyl-4-methoxy-N-(1,2,3,4-tetrahydroquinoline-8-sulfonyl)-2,3-dihydro-1-benzofuran-3-carboxamide]	3 to 10 µM	≥ 150%	< 3 µM	+++ (≥350)	–
4-methoxy-N-(naphthalene-1-sulfonyl)-5-(trifluoromethyl)-2,3-dihydro-1-benzofuran-3-carboxamide and 4-methoxy-N-(naphthalene-1-sulfonyl)-7-(trifluoromethyl)-2,3-dihydro-1-benzofuran-3-carboxamide [Example 40]	< 3 µM	–	< 3 µM	+++ (≥350)	+++ (≥150)
COc1ccc(C2CCC2)c2c1[C@H](C(=O)NS(=O)(=O)c1cccc3ncccc13)CO2 (single isomer, unassigned) [Example 83]	< 3 µM	≥ 150%	< 3 µM	+++ (≥350)	–
Cc1ccccc1S(=O)(=O)NC(=O)C1(C)Cc2ccccc2O1 (stereo not drawn) [Example 16, 2-methyl-N-(2-methylbenzene-1-sulfonyl)-2,3-dihydro-1-benzofuran-2-carboxamide]	≥ 10 µM	< 50%	≥ 10 µM	+ (<150)	–
COc1ccc(C2CCC2)c2c1[C@H](C(=O)NS(=O)(=O)c1cccc3[nH]ccc13)CCO2 [Example 104, (4R)-8-cyclobutyl-N-(1H-indole-4-sulfonyl)-5-methoxy-3,4-dihydro-2H-1-benzopyran-4-carboxamide]	< 3 µM	≥ 150%	< 3 µM	+++ (≥350)	–
COc1ccc(C2CCC2)c2c1[C@@H](C(=O)NS(=O)(=O)c1cccc3cnn(C)c13)CO2 (single isomer, unassigned) [Example 94]	3 to 10 µM	50 to 150%	< 3 µM	+++ (≥350)	–
COc1ccc(C2CCC2)c2c1C(C(=O)NS(=O)(=O)c1cccc3ncccc13)CO2 (stereo not drawn) [Example 80, 7-cyclobutyl-4-methoxy-N-(quinoline-5-sulfonyl)-2,3-dihydro-1-benzofuran-3-carboxamide]	< 3 µM	≥ 150%	< 3 µM	+++ (≥350)	–
COc1ccc(C2CCC2)c2c1C(C(=O)NS(=O)(=O)c1cccc3ncccc13)OCC2 (stereo not drawn) [Example 81, 5-cyclobutyl-8-methoxy-N-(quinoline-5-sulfonyl)-3,4-dihydro-1H-2-benzopyran-1-carboxamide]	3 to 10 µM	≥ 150%	< 3 µM	+++ (≥350)	–
COc1ccc(C2CCC2)c2c1OCCC2C(=O)NS(=O)(=O)c1cccc2ncccc12 (stereo not drawn) [Example 105, 5-cyclobutyl-8-methoxy-N-(quinoline-5-sulfonyl)-3,4-dihydro-2H-1-benzopyran-4-carboxamide]	3 to 10 µM	≥ 150%	< 3 µM	+++ (≥350)	–
